Where two headings read alike, the source gives them in different places.
Assays:
Test in all cases: 7 day pretreatment + 4-day co-treatment combination model (Cell Titer Glo)
U266 = conditions: for IC50: read-out: 4-day IC50
From the text: (§1) Assay plates were developed for endpoint analysis using Cell Titer Glo to measure ATP content, which was used as an indicator of cell viability. DMSO concentration was kept constant throughout the assay at less than 0.2% v/v.
(§2) Cell lines: The cell lines MI1.S and U266B1 were obtained from American Type Culture Collection (ATCC; Rockville, MD). The cell lines LP-1, L-363 were obtained from Deutsche Sammlung von Mikroorganismen and Zellkulturen (DSMZ; Braunschweig, Germany) and the cell line KMS-28BM was obtained from Japanese Collection of Research Bioresources Cell Bank (JCRB, Osaka Japan). All cells were maintained as instructed by the supplier and cultures were maintained at 37° C. in a humidified atmosphere and 5% CO2.
(§3) Loewe volumes greater than 1 denoted synergy and volumes <−1 denoted antagonism.

LP-1 = conditions: for IC50: read-out: 4-day IC50
From the text: as §1, §2, §3

KMS-28-BM = conditions: for IC50: read-out: 4-day IC50
Method: as §1
(§4) All cells were maintained as instructed by the supplier and cultures were maintained at 37° C. in a humidified atmosphere and 5% CO2.
as §3

L-363 = conditions: for IC50: read-out: 4-day IC50
From the text: as §1, §2, §3

MM1.S = conditions: read-out: 4-day IC50
From the text: as §1, §2, §3

MOLP-8 = conditions: second agent + tazemetostat, MOLP-8 t(11;14)
Method: as §1, §4, §3

[1] = second agent + tazemetostat, 7 day pretreatment + 4-day co-treatment, U266 t(11;14)
[2] = second agent + tazemetostat, 7 day pretreatment + 4-day co-treatment, LP-1 t(4;14)
[3] = second agent + tazemetostat, 7 day pretreatment + 4-day co-treatment, KMS-28-BM t(4;14)
[4] = second agent + tazemetostat, 7 day pretreatment + 4-day co-treatment, L-363 t(20;22)

Structure (SMILES)	IC50 (U266; Homo sapiens, U-266, 96 h) [nM]	IC50 (MM1.S; Homo sapiens, MM1.S, 96 h) [nM]	IC50 (LP-1; Homo sapiens, LP-1, 96 h) [nM]	IC50 (KMS-28-BM; KMS-28BM, 96 h) [nM]	IC50 (L-363; Homo sapiens, L-363, 96 h) [nM]	combinatorial effect by Loewe volumes (U266; [1])	combinatorial effect by Loewe volumes (MOLP-8)	combinatorial effect by Loewe volumes (LP-1; [2])	combinatorial effect by Loewe volumes (KMS-28-BM; [3])	combinatorial effect by Loewe volumes (L-363; [4])	further results
Cn1c(CCCC(=O)O)nc2cc(N(CCCl)CCCl)ccc21 [Bendamustine, bendamustine]	> 10000	> 10000	> 10000	> 10000	> 10000	–	–	–	–	–	–
O=P1(N(CCCl)CCCl)NCCCO1 (stereo not drawn) [Cyclophosphomide, cyclophosphamide]	> 10000	1180	6000	1480	> 10000	–	–	–	–	–	–
CC(C)C[C@H](NC(=O)CNC(=O)c1cc(Cl)ccc1Cl)B(O)O [Ixazomib, ixazomib]	–	–	–	–	–	–	A (Additive)	–	–	–	combinatorial effect by Loewe volumes (U266): S (key: Antagonism; Synergy; Additive; X: Not Tested); IC50 (U266; single agent, U266 t(11; 14)): 1.5 nM; combinatorial effect by Loewe volumes (LP-1): S (key: Antagonism; Synergy; Additive; X: Not Tested); IC50 (LP-1; single agent, LP-1 t(4; 14)): 12 nM; combinatorial effect by Loewe volumes (KMS-28-BM): A (key: Antagonism; Synergy; Additive; X: Not Tested); IC50 (KMS-28-BM; single agent, KMS-28-BM t(4; 14)): 19 nM; combinatorial effect by Loewe volumes (L-363): A (key: Antagonism; Synergy; Additive; X: Not Tested); IC50 (L-363; single agent, L-363 t(20; 22)): 47 nM; IC50 (MM1.S; single agent, MM1.S t(14; 16)): 12 nM
N[C@@H](Cc1ccc(N(CCCl)CCCl)cc1)C(=O)O [Melphalan, melphalan]	> 10000	2940	> 10000	1120	> 10000	–	–	–	–	–	–
O=C(CCCCCCC(=O)Nc1ccccc1)NO [Vorinostat, vorinostat]	–	–	669	–	–	S (Synergy)	A (Additive)	S (Synergy)	S (Synergy)	A (Additive)	–

Continued, in another order:

IC50 (U266; Homo sapiens, U-266, 96 h) [nM]	IC50 (MM1.S; Homo sapiens, MM1.S, 96 h) [nM]	Structure (SMILES)	IC50 (LP-1; Homo sapiens, LP-1, 96 h) [nM]	IC50 (KMS-28-BM; KMS-28BM, 96 h) [nM]	IC50 (L-363; Homo sapiens, L-363, 96 h) [nM]	combinatorial effect by Loewe volumes (U266; [1])	combinatorial effect by Loewe volumes (MOLP-8)	combinatorial effect by Loewe volumes (LP-1; [2])	combinatorial effect by Loewe volumes (KMS-28-BM; [3])	combinatorial effect by Loewe volumes (L-363; [4])	further results
3	1.07	CC(C)C[C@H](NC(=O)[C@H](CCc1ccccc1)NC(=O)CN1CCOCC1)C(=O)N[C@@H](Cc1ccccc1)C(=O)N[C@@H](CC(C)C)C(=O)[C@@]1(C)CO1 [Carfilzomib, carfilzomib]	3.5	2	2	S (Synergy)	A (Additive)	S (Synergy)	S (Synergy)	A (Additive)	–
50	8	COc1cccc2c1C(=O)c1c(O)c3c(c(O)c1C2=O)C[C@@](O)(C(=O)CO)C[C@@H]3O[C@H]1C[C@H](N)[C@H](O)[C@H](C)O1 [Doxorubicin, doxorubicin]	203	87	10	A (Additive)	A (Additive)	S (Synergy)	A (Additive)	A (Additive)	–
787	122	COc1cc([C@@H]2c3cc4c(cc3[C@@H](O[C@@H]3O[C@@H]5CO[C@@H](C)O[C@H]5[C@H](O)[C@H]3O)[C@H]3COC(=O)[C@H]23)OCO4)cc(OC)c1O [Etoposide, etoposide]	3000	478	140	–	–	–	–	–	–
> 10000	> 10000	O=C1CCC(N2C(=O)c3ccccc3C2=O)C(=O)N1 (stereo not drawn) [Thalidomide, thalidomide]	> 10000	> 10000	> 10000	–	–	–	–	–	–
0.5	1	CC[C@]1(O)C[C@H]2CN(CCc3c([nH]c4ccccc34)[C@@](C(=O)OC)(c3cc4c(cc3OC)N(C=O)[C@H]3[C@@](O)(C(=O)OC)[C@H](OC(C)=O)[C@]5(CC)C=CCN6CC[C@]43[C@@H]65)C2)C1 [Vincristine, vincristine]	2.3	1.15	1	–	–	–	–	–	–
